Laboratory results from ChEMBL document CHEMBL1201862, “PubChem BioAssay data set” (2004).
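In this assay, cells in 96-well plates receive the compound at five concentrations for 48 hours. Endpoints are linearly interpolated between the surrounding concentrations. GI50: concentration for 50% inhibition of growth.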 Activity calls are given as the source filed them. Cut-off read from the data, not from the text of the source: active = GI50 up to about 1.1 µM and inactive = higher.

Key:
Test in all cases: NCI-60 cell line screen, 48 h
COLO 205 = tested on: COLO 205
MCF7 = tested on: MCF7
SK-MEL-28 = tested on: SK-MEL-28
SF-268 = tested on: SF-268
SNB-75 = tested on: SNB-75
SK-MEL-5 = tested on: SK-MEL-5
UO-31 = tested on: UO-31
786-0 = tested on: 786-0
TK-10 = tested on: TK-10
A549 = tested on: A549
SN12C = tested on: SN12C
UACC-62 = tested on: UACC-62
OVCAR-5 = tested on: OVCAR-5
SW-620 = tested on: SW-620
SF-295 = tested on: SF-295
NCI-H226 = tested on: NCI-H226
MDA-N = tested on: MDA-N
CCRF-CEM = tested on: CCRF-CEM
EKVX = tested on: EKVX
PC-3 = tested on: PC-3
HT-29 = tested on: HT-29
SK-OV-3 = tested on: SK-OV-3
MOLT-4 = tested on: MOLT-4
RXF 393 = tested on: RXF 393
T47D = tested on: T47D
HL-60 = tested on: HL-60
SK-MEL-2 = tested on: SK-MEL-2
SNB-19 = tested on: SNB-19
IGROV-1 = tested on: IGROV-1
M14 = tested on: M14
HCT-15 = tested on: HCT-15
A498 = tested on: A498
Malme-3M = tested on: Malme-3M
U-251 = tested on: U-251
MDA-MB-435 = tested on: MDA-MB-435
HCT-116 = tested on: HCT-116
OVCAR-3 = tested on: OVCAR-3
Hs-578T = tested on: Hs-578T
NCI/ADR-RES = tested on: NCI/ADR-RES
NCI-H23 = tested on: NCI-H23
K562 = tested on: K562
CAKI-1 = tested on: CAKI-1
UACC-257 = tested on: UACC-257
DU-145 = tested on: DU-145
OVCAR-8 = tested on: OVCAR-8
LOX IMVI = tested on: LOX IMVI
RPMI-8226 = tested on: RPMI-8226
MDA-MB-231 = tested on: MDA-MB-231
KM12 = tested on: KM12
HOP-92 = tested on: HOP-92
SF-539 = tested on: SF-539
OVCAR-4 = tested on: OVCAR-4
ACHN = tested on: ACHN
SR = tested on: SR
BT-549 = tested on: BT-549
HOP-62 = tested on: HOP-62
NCI-H522 = tested on: NCI-H522
HCC 2998 = tested on: HCC 2998
NCI-H460 = tested on: NCI-H460

SMILES: CC(C)(C)c1cc(C(O)(C(=O)O)C(=O)O)cc(C(C)(C)C)c1O
- GI50 (COLO 205): > 100 µM (inactive)
- GI50 (MCF7): > 100 µM (inactive)
- GI50 (SK-MEL-28): > 100 µM (inactive)
- GI50 (SF-268): > 100 µM (inactive)
- GI50 (SNB-75): > 100 µM (inactive)
- GI50 (SK-MEL-5): > 100 µM (inactive)
- GI50 (UO-31): > 100 µM (inactive)
- GI50 (786-0): > 100 µM (inactive)
- GI50 (TK-10): > 100 µM (inactive)
- GI50 (A549): > 100 µM (inactive)
- GI50 (SN12C): > 100 µM (inactive)
- GI50 (UACC-62): > 100 µM (inactive)
- GI50 (OVCAR-5): > 100 µM (inactive)
- GI50 (SW-620): > 100 µM (inactive)
- GI50 (SF-295): > 100 µM (inactive)
- GI50 (NCI-H226): > 100 µM (inactive)
- GI50 (MDA-N): > 100 µM (inactive)
- GI50 (CCRF-CEM): > 100 µM (inactive)
- GI50 (EKVX): > 100 µM (inactive)
- GI50 (PC-3): > 100 µM (inactive)
- GI50 (HT-29): > 100 µM (inactive)
- GI50 (SK-OV-3): > 100 µM (inactive)
- GI50 (MOLT-4): > 100 µM (inactive)
- GI50 (RXF 393): > 100 µM (inactive)
- GI50 (T47D): > 100 µM (inactive)
- GI50 (HL-60): > 100 µM (inactive)
- GI50 (SK-MEL-2): > 100 µM (inactive)
- GI50 (SNB-19): > 100 µM (inactive)
- GI50 (IGROV-1): > 100 µM (inactive)
- GI50 (M14): > 100 µM (inactive)
- GI50 (HCT-15): > 100 µM
- GI50 (A498): > 100 µM (inactive)
- GI50 (Malme-3M): > 100 µM (inactive)
- GI50 (U-251): > 100 µM (inactive)
- GI50 (MDA-MB-435): > 100 µM (inactive)
- GI50 (HCT-116): > 100 µM (inactive)
- GI50 (OVCAR-3): > 100 µM (inactive)
- GI50 (Hs-578T): > 100 µM (inactive)
- GI50 (NCI/ADR-RES): > 100 µM (inactive)
- GI50 (NCI-H23): > 100 µM (inactive)
- GI50 (K562): > 100 µM (inactive)
- GI50 (CAKI-1): > 100 µM (inactive)
- GI50 (UACC-257): > 100 µM (inactive)
- GI50 (DU-145): > 100 µM (inactive)
- GI50 (OVCAR-8): > 100 µM (inactive)
- GI50 (LOX IMVI): > 100 µM (inactive)
- GI50 (RPMI-8226): > 100 µM (inactive)
- GI50 (MDA-MB-231): > 100 µM (inactive)
- GI50 (KM12): > 100 µM (inactive)
- GI50 (HOP-92): > 100 µM (inactive)
- GI50 (SF-539): > 100 µM (inactive)
- GI50 (OVCAR-4): > 100 µM (inactive)
- GI50 (ACHN): > 100 µM (inactive)
- GI50 (SR): > 100 µM (inactive)
- GI50 (BT-549): > 100 µM (inactive)
- GI50 (HOP-62): > 100 µM (inactive)
- GI50 (NCI-H522): > 100 µM (inactive)

SMILES: COc1ccc(C)c2c1N[C@](C)([C@]1(C)Nc3c(OC)ccc(C)c3C1=O)C2=O
- GI50 (COLO 205): > 100 µM (inactive)
- GI50 (MCF7): > 100 µM (inactive)
- GI50 (SK-MEL-28): > 100 µM (inactive)
- GI50 (SF-268): 51.6 µM (inactive)
- GI50 (SK-MEL-5): > 100 µM (inactive)
- GI50 (UO-31): > 100 µM (inactive)
- GI50 (786-0): > 100 µM (inactive)
- GI50 (A549): > 100 µM (inactive)
- GI50 (SN12C): > 100 µM (inactive)
- GI50 (UACC-62): > 100 µM (inactive)
- GI50 (OVCAR-5): > 100 µM (inactive)
- GI50 (SW-620): > 100 µM (inactive)
- GI50 (SF-295): 41.4 µM (inactive)
- GI50 (NCI-H226): > 100 µM (inactive)
- GI50 (MDA-N): > 100 µM (inactive)
- GI50 (CCRF-CEM): > 100 µM (inactive)
- GI50 (EKVX): > 100 µM (inactive)
- GI50 (PC-3): > 100 µM (inactive)
- GI50 (HT-29): > 100 µM (inactive)
- GI50 (HCC 2998): > 100 µM (inactive)
- GI50 (SK-OV-3): > 100 µM (inactive)
- GI50 (MOLT-4): > 100 µM (inactive)
- GI50 (RXF 393): > 100 µM (inactive)
- GI50 (T47D): > 100 µM (inactive)
- GI50 (SK-MEL-2): > 100 µM (inactive)
- GI50 (SNB-19): 68.9 µM (inactive)
- GI50 (IGROV-1): > 100 µM (inactive)
- GI50 (M14): > 100 µM (inactive)
- GI50 (HCT-15): > 100 µM
- GI50 (A498): > 100 µM (inactive)
- GI50 (Malme-3M): > 100 µM (inactive)
- GI50 (U-251): > 100 µM (inactive)
- GI50 (MDA-MB-435): 44.7 µM (inactive)
- GI50 (HCT-116): > 100 µM (inactive)
- GI50 (OVCAR-3): > 100 µM (inactive)
- GI50 (Hs-578T): 39.3 µM (inactive)
- GI50 (NCI/ADR-RES): > 100 µM (inactive)
- GI50 (NCI-H23): > 100 µM (inactive)
- GI50 (K562): > 100 µM (inactive)
- GI50 (CAKI-1): > 100 µM (inactive)
- GI50 (UACC-257): > 100 µM (inactive)
- GI50 (DU-145): > 100 µM (inactive)
- GI50 (OVCAR-8): 49.4 µM (inactive)
- GI50 (LOX IMVI): > 100 µM (inactive)
- GI50 (RPMI-8226): > 100 µM (inactive)
- GI50 (MDA-MB-231): > 100 µM (inactive)
- GI50 (KM12): 76.9 µM (inactive)
- GI50 (HOP-92): 38 µM (inactive)
- GI50 (SF-539): > 100 µM (inactive)
- GI50 (NCI-H460): > 100 µM (inactive)
- GI50 (OVCAR-4): > 100 µM (inactive)
- GI50 (ACHN): > 100 µM (inactive)
- GI50 (SR): > 100 µM (inactive)
- GI50 (BT-549): > 100 µM (inactive)
- GI50 (HOP-62): 94.4 µM (inactive)
- GI50 (NCI-H522): > 100 µM (inactive)
